Experiments:
cucumber seedlings = test: Safety for plant growth after application; assay type: in vivo; details: dosage 200 ppm
Summary of the method: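 Compound applied to indoor cucumber seedlings in pots. Growth then scored: height increase rate, leaf chlorophyll, leaf area.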

[1] = test system: fruit blotch in watermelons; test: whole plant or invertebrate; details: read-out: efficacy against fruit blotch in watermelons
[2] = test system: pathogenic bacteria causing black shank in potatoes; test: In vitro bactericidal activity, black shank in potatoes; assay type: cell-based; details: read-out: inhibitory rate; for inhibition at 1 ppm: dosage 1 ppm; for inhibition at 5 ppm: dosage 5 ppm
[3] = test system: pathogenic bacteria causing bacterial wilt in tobacco; test: whole plant or invertebrate; assay type: cell-based, ralstonia; details: read-out: inhibitory rate
black shank in potatoes = test: Living crops in vivo protective activity, potatoes (root irrigation); details: Solanum tuberosum, read-out: efficacy against black shank in potatoes; for pest or weed control at 5 ppm: dosage 5 ppm; for pest or weed control at 10 ppm: dosage 10 ppm
Protocol: Root irrigation was carried out on the potatoes for tests according to the designed concentration of the agents. The dosage for each plant was 200 mL and was kept consistent (also for the control). The black shank bacteria were inoculated on the second day after the application. The results were investigated according to the disease condition.

[4] = test system: soft rot in Chinese cabbages; test: whole plant or invertebrate; details: 48 h, read-out: efficacy against soft rot in Chinese cabbages
bacterial blight in rice = test: whole plant or invertebrate; details: Oryza sativa, read-out: efficacy against bacterial blight in rice
[5] = test system: pathogenic bacteria causing bacterial blight in rice; test: whole plant or invertebrate; assay type: cell-based, xanthomonas; details: read-out: inhibitory rate
[6] = test system: indoor potted cucumber seedlings; test: Effect of improving growth and development of crops; assay type: in vivo; parameters: Rate of growth rate increase (%): concentration or dose not given beside the values; details: versus blank control; for Rate of chlorophyll content increase (%) / Rate of leaf area increase (%): 14 days after application; for Rate of growth rate increase (%): plant height 14 days after application; for Rate of leaf area increase (%): second leaf
Protocol: Taking indoor potted cucumber seedlings as an example, the influence of the compound disclosed herein on growth rate of plant height, chlorophyll content, leaf area, etc. of crops was mainly evaluated.
The plant heights of plants before application and 14 days after the application were measured.
The growth rates were calculated according to formula (1)
The rates of the growth rate increase (%) were calculated according to formula (2)
The longitudinal and transverse diameters (i.e., leaf length and leaf width, respectively, wherein the leaf length is the distance from the base to the tip of a leaf, and leaf width is the measured value of the upper shoulder width of the leaf) of the second leaf of plants before application and 14 days after the application were measured.
The leaf areas were calculated according to formula (3)
The leaf area increases were calculated according to formula (4)
The rates of the leaf area increases were calculated according to formula (5)
The chlorophyll contents of leaves were measured by using a chlorophyll measuring instrument (model: SPAD-520 Plus).
The chlorophyll content increases were calculated according to formula (6)
The rates of the chlorophyll content increases were calculated according to formula (7)

[7] = test system: pathogenic bacteria causing fire blight in pears; test: In vitro bactericidal activity, fire blight in pears; assay type: cell-based, erwinia; details: Erwinia, read-out: inhibitory rate; for inhibition at 1 ppm: dosage 1 ppm; for inhibition at 5 ppm: dosage 5 ppm
[8] = test system: stem rot in sweet potatoes; test: whole plant or invertebrate; details: read-out: efficacy against stem rot in sweet potatoes
[9] = test system: pathogenic bacteria causing stem rot in sweet potatoes; test: In vitro bactericidal activity, stem rot in sweet potatoes; assay type: cell-based, dikia; details: read-out: inhibitory rate; for inhibition at 1 ppm: dosage 1 ppm; for inhibition at 5 ppm: dosage 5 ppm
[10] = test system: bacterial wilt in tobacco; test: whole plant or invertebrate; details: Nicotiana tabacum, read-out: efficacy against bacterial wilt in tobacco
[11] = test system: pathogenic bacteria causing fruit blotch in watermelons; test: In vitro bactericidal activity, fruit blotch in watermelons; assay type: cell-based, acidovorax; details: read-out: inhibitory rate; for inhibition at 1 ppm: dosage 1 ppm; for inhibition at 5 ppm: dosage 5 ppm
[12] = test system: pathogenic bacteria causing bacterial angular leaf spot in cucumbers; test: In vitro bactericidal activity, bacterial angular leaf spot in cucumbers; assay type: cell-based, pseudomonas; details: read-out: inhibitory rate; for inhibition at 1 ppm: dosage 1 ppm; for inhibition at 5 ppm: dosage 5 ppm
[13] = test system: pathogenic bacteria causing bacterial wilt in cassava; test: organism not typed; assay type: cell-based; details: read-out: inhibitory rate
[14] = test system: pathogenic bacteria causing black rot in Chinese cabbages; test: In vitro bactericidal activity, black rot in Chinese cabbages; assay type: cell-based, xanthomonas; details: Xanthomonas, read-out: inhibitory rate; for inhibition at 1 ppm: dosage 1 ppm; for inhibition at 5 ppm: dosage 5 ppm

SMILES: COCCOC(=O)c1cn(C2CC2)c2ccc(F)cc2c1=O [Compound 10, 2-methoxyethyl 1-cyclopropyl-6-fluoro-4-oxo-1,4-dihydroquinoline-3-carboxylate]
- safety for plant growth (discoloration, necrosis, wilt, malformation) (cucumber seedlings): safe for plant growth
- pest or weed control at 5 ppm [1]: ≥ 90%
- pest or weed control at 10 ppm [1]: ≥ 90%
- inhibition at 1 ppm [2]: ≥ 80%
- inhibition at 5 ppm [2]: ≥ 90%
- inhibition at 1 ppm [3]: ≥ 80%
- inhibition at 5 ppm [3]: ≥ 90%
- pest or weed control at 5 ppm (black shank in potatoes): ≥ 80%
- pest or weed control at 10 ppm (black shank in potatoes): ≥ 90%
- pest or weed control at 5 ppm [4]: ≥ 80%
- pest or weed control at 10 ppm [4]: ≥ 90%
- pest or weed control at 5 ppm (bacterial blight in rice): ≥ 80%
- pest or weed control at 10 ppm (bacterial blight in rice): ≥ 90%
- inhibition at 1 ppm [5]: ≥ 80%
- inhibition at 5 ppm [5]: ≥ 90%
- Rate of chlorophyll content increase (%) [6]: 13%
- Rate of growth rate increase (%) [6]: 9%
- Rate of leaf area increase (%) [6]: 10%
- inhibition at 1 ppm [7]: ≥ 90%
- inhibition at 5 ppm [7]: ≥ 90%
- pest or weed control at 5 ppm [8]: ≥ 90%
- pest or weed control at 10 ppm [8]: ≥ 90%
- inhibition at 1 ppm [9]: ≥ 90%
- inhibition at 5 ppm [9]: ≥ 90%
- pest or weed control at 5 ppm [10]: ≥ 90%
- pest or weed control at 10 ppm [10]: ≥ 90%
- inhibition at 1 ppm [11]: ≥ 90%
- inhibition at 5 ppm [11]: ≥ 90%
- inhibition at 1 ppm [12]: ≥ 90%
- inhibition at 5 ppm [12]: ≥ 90%
- inhibition at 1 ppm [13]: ≥ 90%
- inhibition at 5 ppm [13]: ≥ 90%
- inhibition at 1 ppm [14]: ≥ 90%
- inhibition at 5 ppm [14]: ≥ 90%

SMILES: COCOC(=O)c1cn(C2CC2)c2cc(Cl)c(F)cc2c1=O [Compound 143]
- safety for plant growth (discoloration, necrosis, wilt, malformation) (cucumber seedlings): safe for plant growth
- pest or weed control at 5 ppm [1]: ≥ 90%
- pest or weed control at 10 ppm [1]: ≥ 90%
- inhibition at 1 ppm [2]: ≥ 80%
- inhibition at 5 ppm [2]: ≥ 90%
- inhibition at 1 ppm [3]: ≥ 80%
- inhibition at 5 ppm [3]: ≥ 90%
- pest or weed control at 5 ppm (black shank in potatoes): ≥ 80%
- pest or weed control at 10 ppm (black shank in potatoes): ≥ 90%
- pest or weed control at 5 ppm [4]: ≥ 80%
- pest or weed control at 10 ppm [4]: ≥ 90%
- pest or weed control at 5 ppm (bacterial blight in rice): ≥ 80%
- pest or weed control at 10 ppm (bacterial blight in rice): ≥ 90%
- inhibition at 1 ppm [5]: ≥ 80%
- inhibition at 5 ppm [5]: ≥ 90%
- Rate of chlorophyll content increase (%) [6]: 11%
- Rate of growth rate increase (%) [6]: 8%
- Rate of leaf area increase (%) [6]: 15%
- inhibition at 1 ppm [7]: ≥ 80%
- inhibition at 5 ppm [7]: ≥ 90%
- pest or weed control at 5 ppm [8]: ≥ 90%
- pest or weed control at 10 ppm [8]: ≥ 90%
- inhibition at 1 ppm [9]: ≥ 80%
- inhibition at 5 ppm [9]: ≥ 90%
- pest or weed control at 5 ppm [10]: ≥ 90%
- pest or weed control at 10 ppm [10]: ≥ 90%
- inhibition at 1 ppm [11]: ≥ 80%
- inhibition at 5 ppm [11]: ≥ 90%
- inhibition at 1 ppm [12]: ≥ 80%
- inhibition at 5 ppm [12]: ≥ 90%
- inhibition at 1 ppm [13]: ≥ 80%
- inhibition at 5 ppm [13]: ≥ 90%
- inhibition at 1 ppm [14]: ≥ 80%
- inhibition at 5 ppm [14]: ≥ 90%

SMILES: CCOCOC(=O)c1cn(C2CC2)c2cc(Cl)c(F)cc2c1=O [Compound 144]
- safety for plant growth (discoloration, necrosis, wilt, malformation) (cucumber seedlings): safe for plant growth
- pest or weed control at 5 ppm [1]: ≥ 90%
- pest or weed control at 10 ppm [1]: ≥ 90%
- inhibition at 1 ppm [2]: ≥ 80%
- inhibition at 5 ppm [2]: ≥ 90%
- inhibition at 1 ppm [3]: ≥ 80%
- inhibition at 5 ppm [3]: ≥ 90%
- pest or weed control at 5 ppm (black shank in potatoes): ≥ 80%
- pest or weed control at 10 ppm (black shank in potatoes): ≥ 90%
- pest or weed control at 5 ppm [4]: ≥ 80%
- pest or weed control at 10 ppm [4]: ≥ 90%
- pest or weed control at 5 ppm (bacterial blight in rice): ≥ 80%
- pest or weed control at 10 ppm (bacterial blight in rice): ≥ 90%
- inhibition at 1 ppm [5]: ≥ 80%
- inhibition at 5 ppm [5]: ≥ 90%
- Rate of chlorophyll content increase (%) [6]: 18%
- Rate of growth rate increase (%) [6]: 10%
- Rate of leaf area increase (%) [6]: 13%
- inhibition at 1 ppm [7]: ≥ 80%
- inhibition at 5 ppm [7]: ≥ 90%
- pest or weed control at 5 ppm [8]: ≥ 90%
- pest or weed control at 10 ppm [8]: ≥ 90%
- inhibition at 1 ppm [9]: ≥ 80%
- inhibition at 5 ppm [9]: ≥ 90%
- pest or weed control at 5 ppm [10]: ≥ 90%
- pest or weed control at 10 ppm [10]: ≥ 90%
- inhibition at 1 ppm [11]: ≥ 80%
- inhibition at 5 ppm [11]: ≥ 90%
- inhibition at 1 ppm [12]: ≥ 80%
- inhibition at 5 ppm [12]: ≥ 90%
- inhibition at 1 ppm [13]: ≥ 80%
- inhibition at 5 ppm [13]: ≥ 90%
- inhibition at 1 ppm [14]: ≥ 80%
- inhibition at 5 ppm [14]: ≥ 90%

SMILES: O=C(OCCO)c1cn(C2CC2)c2cc(Cl)c(F)cc2c1=O [Compound 151, 2-hydroxyethyl-7-chloro-1-cyclopropyl-6-fluoro-4-oxo-1,4-dihydroquinoline-3-carboxylate]
- safety for plant growth (discoloration, necrosis, wilt, malformation) (cucumber seedlings): safe for plant growth
- pest or weed control at 5 ppm [1]: ≥ 90%
- pest or weed control at 10 ppm [1]: ≥ 90%
- inhibition at 1 ppm [2]: ≥ 90%
- inhibition at 5 ppm [2]: ≥ 90%
- inhibition at 1 ppm [3]: ≥ 90%
- inhibition at 5 ppm [3]: ≥ 90%
- pest or weed control at 5 ppm (black shank in potatoes): ≥ 90%
- pest or weed control at 10 ppm (black shank in potatoes): ≥ 90%
- pest or weed control at 5 ppm [4]: ≥ 90%
- pest or weed control at 10 ppm [4]: ≥ 90%
- pest or weed control at 5 ppm (bacterial blight in rice): ≥ 90%
- pest or weed control at 10 ppm (bacterial blight in rice): ≥ 90%
- inhibition at 1 ppm [5]: ≥ 90%
- inhibition at 5 ppm [5]: ≥ 90%
- Rate of chlorophyll content increase (%) [6]: 15%
- Rate of growth rate increase (%) [6]: 12%
- Rate of leaf area increase (%) [6]: 16%
- inhibition at 1 ppm [7]: ≥ 90%
- inhibition at 5 ppm [7]: ≥ 90%
- pest or weed control at 5 ppm [8]: ≥ 90%
- pest or weed control at 10 ppm [8]: ≥ 90%
- inhibition at 1 ppm [9]: ≥ 90%
- inhibition at 5 ppm [9]: ≥ 90%
- pest or weed control at 5 ppm [10]: ≥ 90%
- pest or weed control at 10 ppm [10]: ≥ 90%
- inhibition at 1 ppm [11]: ≥ 90%
- inhibition at 5 ppm [11]: ≥ 90%
- inhibition at 1 ppm [12]: ≥ 90%
- inhibition at 5 ppm [12]: ≥ 90%
- inhibition at 1 ppm [13]: ≥ 90%
- inhibition at 5 ppm [13]: ≥ 90%
- inhibition at 1 ppm [14]: ≥ 90%
- inhibition at 5 ppm [14]: ≥ 90%
